Where two headings read alike, the source gives them in different places.

Here are results for three compounds from US20230339949A1, “HETEROCYCLIC SUBSTITUTED FUSED y-CARBOLINE DERIVATIVE, PREPARATION METHOD THEREFOR, INTERMEDIATE THEREOF AND USE THEREOF” (SHUJING BIOPHARMA CO., LTD, priority 2020, published 2023).

Data set [1] has as its target T1, D2 (CHO-K1/D2L/Gα15 cells) (Homo sapiens, UniProt P14416).
T1 construct: expressed in transfected cells; host or cells: CHO-K1 (CHO-K1/D2L/Gα15, cryopreserved cells)
Briefly: Functional activity test on receptor (cryopreservation cells), calcium FLIPR, D2. The conditions noted are these: for IC50: cryopreserved CHO-K1/D2L/Gα15 cells, calcium fluorescence (FLIPR), antagonist mode vs dopamine EC80; for D2/5-HT2A ratio: ratio of D2 IC50 to 5-HT2A IC50, Test Example 1. It counts as cell-based. The protocol:
Test Example 1: Functional Activity Test of Each Compound on Receptor (Cryopreservation Cells) [table] • (1) Cells was taken out from a liquid nitrogen tank, and the tube cap was loosened and inverted to make the liquid nitrogen flow out of the tube, then the cryopreservation tube was tightened. • (2) The cryopreservation tube was shaken rapidly at 37° C. […] • (1) Preparation of 250 mM probenecid solution: 1 mL experimental buffer was added into a tube containing 77 mg powder, and the powder was dissolved by vortex oscillation. • (2) Preparation of 2× fluorescent probe solution: A bottle of fluorescent probe dry powder was taken out to balance to room temperature, and 10 mL of experimental buffer solution and 200 μL of 250 mM probenecid solution were added thereto, and the bottle was scrolled and let stand for 5 minutes to ensure complete dissolution, and then the bottle was scrolled again. • a) Preparation of agonist compound plate (test of EC80): […] The compound to be tested was diluted 3-fold at 10 concentration points using experimental buffer in the compound plate (Greiner-781280), with an initial concentration of 3 μM and 30 μL per well; the antagonistic positive compounds (Spiperone and Ketanserin) were diluted 3-fold at 10 concentration points using experimental buffer, with an initial concentration of 1 μM and 30 μL per well. DMSO concentration was not higher than 3%. • (2) Cell preparation: Cells was taken out from the incubator, and 20 μL of prepared 2× fluorescent probe solution was added thereto, incubated at 37° C. for 50 minutes, then equilibrated at room temperature for 10 minutes. • a) The cell plate and agonist compound plate were put into the instrument, and the program of reading the plate was run. • b) 10 μL was transferred from the agonist compound plate to the cell plate, and fluorescence signal was read. • c) The EC80 of agonist was calculated using Screenworks software and 6×EC80 concentration was prepared for later use.

Another data set has as its target T2, 5-HT2A receptor (Homo sapiens, UniProt P28223).
T2 construct: expressed in transfected cells
Briefly: Functional detection experiment of 5-HT2A receptor (cultured cells), calcium influx assay. It counts as cell-based. From the text: The antagonistic effect of the compound of the present disclosure on the 5-HT2A receptor was detected by a calcium influx assay at the cellular level.
• (1) Test compounds: compounds of the embodiments of the present disclosure, self-made. • (2) Control compound: serotonin hydrochloride 5-hydroxytryptamine (Sigma, H9523), Ketanserin (Targetmol, T1066). • (3) Stable cell line:
• (1) Preparation of test compounds: the compounds of the embodiments of the present disclosure were respectively dissolved in DMSO to prepare 10 mM mother liquor, and the mother liquor was stored in the nitrogen cabinet for later use. • (2) Preparation of control compound: the control compound was dissolved in DMSO to prepare 10 mM mother liquor, and the mother liquor was repackaged and stored in the refrigerator at -80° C. for later use. • (3) Preparation of 250 mM probenecid solution: 1 mL experimental buffer was added into a tube containing 77 mg powder, and the powder was dissolved by vortex oscillation. • (4) Preparation of 2× fluorescent probe solution: a bottle of fluorescent probe dry powder was taken out to balance to room temperature, and 10 mL of experimental buffer solution and 200 μL of 250 mM probenecid solution were added thereto, and the mixture was scrolled and let stand for 5 minutes to ensure complete dissolution. • (5) Experimental buffer HBSS: HBSS and HEPES were mixed evenly in a ratio of 50:1, stored in a refrigerator at 4° C., and heated at 37° C. when used.
• (1) Cells were taken out from the liquid nitrogen tank and melted in a water bath at 37° C. The surface of the cryopreservation tube was wiped with 75% alcohol and put in the biosafety cabinet. • (2) The cell suspension was transferred to a 15 mL centrifuge tube with 4 mL preheated plating medium, and the tube was centrifuged at 1000 rpm for 5 minutes. • (3) The supernatant was discarded, and 10 mL of plating medium was added and blown gently, and the mixture was transferred to a culture dish for growth. After the cells had adhered to the wall for 24 hours, they were replaced with growth medium for continuous culture.
• (1) The logarithmic growth cells was taken and the cells grew to about 85%-90%. The cells were performed the following operations: cell cleaning, digestion, termination, then transferred to a 15 mL centrifuge tube, and the tube was centrifuged at room temperature at 1000 rpm for 5 minutes. • (2) The supernatant was discarded, and a certain plating medium was added and blown gently. 20 μL of cell suspension was taken out and counted. • (3) Cells were diluted to 1×10^6 cells/mL and 20 μL of cell suspension was added to each well of the cell plate (Greiner-781946), so that the density of each well is 2×10^4 cells/well. • (4) The cell plate was incubated in an incubator with 5% CO2 at 37° C. for 16-24 hours. […]

For data set [2], the target named is T3, 5-HT2A (CHO-K1/5HT2A cells) (Homo sapiens, UniProt P28223).
T3 construct: expressed in transfected cells; host or cells: CHO-K1 (CHO-K1/5HT2A, cryopreserved cells)
T3 sequence (P28223 whole entry): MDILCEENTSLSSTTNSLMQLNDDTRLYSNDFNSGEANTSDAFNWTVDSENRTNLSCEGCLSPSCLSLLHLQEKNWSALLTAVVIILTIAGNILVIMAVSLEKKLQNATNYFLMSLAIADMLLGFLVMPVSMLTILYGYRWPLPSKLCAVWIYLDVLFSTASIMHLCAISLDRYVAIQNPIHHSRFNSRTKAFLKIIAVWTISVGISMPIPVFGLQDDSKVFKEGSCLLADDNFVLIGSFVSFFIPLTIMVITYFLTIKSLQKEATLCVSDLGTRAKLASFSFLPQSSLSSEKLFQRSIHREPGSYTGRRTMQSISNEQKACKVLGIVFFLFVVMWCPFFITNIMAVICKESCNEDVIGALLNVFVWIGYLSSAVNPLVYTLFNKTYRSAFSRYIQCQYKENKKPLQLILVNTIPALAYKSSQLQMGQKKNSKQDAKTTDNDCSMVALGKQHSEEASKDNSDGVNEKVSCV
Kind of data set: Functional activity test on receptor (cryopreservation cells), calcium FLIPR, 5-HT2A. It counts as cell-based.
Protocol: • (1) Cells was taken out from a liquid nitrogen tank, and the tube cap was loosened and inverted to make the liquid nitrogen flow out of the tube, then the cryopreservation tube was tightened. • (2) The cryopreservation tube was shaken rapidly at 37° C. […] 20 μL cell suspension was taken out and counted by cell counter. • (6) Dilution according to the specified conditions: 1×10^6 cells /mL, 20 μL cell suspension was added into each well of the cell plate, and finally the concentration of each well is 20,000 cells/well sequentially. • (7) The cell plate was cultured in an incubator with 5% CO2 and at 37° C. for 16-24 hours. […]
• a) The cell plate and agonist compound plate were put into the instrument, and the program of reading the plate was run. • b) 10 μL was transferred from the agonist compound plate to the cell plate, and fluorescence signal was read. • c) The EC80 of agonist was calculated using Screenworks software and 6×EC80 concentration was prepared for later use. […]

A short description of the next data set: PK test on ICR mice. It is filed as in vivo. The settings on record: mouse; male ICR mice, oral gavage, 5 mg/kg single dose, plasma. As to the method:
Male ICR mice were administered by oral gavage administration, and blood concentration of the compound of the present disclosure in mice was measured, and PK parameters were calculated, and the pharmacokinetics of the compound of the present disclosure was evaluated.
Preparation of drug: The test compound was taken, and physiological saline was added, and ultrasonication was performed.
Administration route and dosage: administered by oral gavage, administration dosage: 5 mg/kg, administration volume: 10 mL/kg.
Administration frequency and duration: single dose.
ICR mice were stratified by body weight and then randomly grouped into 3 mice per group, and fasted overnight before the experiment. After oral gavage administration, at 0, 0.033, 0.083, 0.5, 1, 2, 4, 6 and 8 hours, […] of blood was collected from the mandibular vein or saphenous vein of mice and put into sample tubes containing the anticoagulant sodium heparin, and the sample tube was placed in wet ice, centrifuged at 4 000 r·min^−1 for 10 minutes, and the plasma was separated and cryopreserved in a refrigerator at −80° C. for testing.
The blood concentration-time data of the compound of the present disclosure measured by gavage administration were substituted into Winnonlin 8.2 program to calculate the main pharmacokinetic parameters. Tmax and Cmax were measured values, AUC0-t and AUC0-∞ values were calculated by trapezoidal method, and t1/2 was calculated by the concentration point at the end of elimination phase via semi-logarithmic drawing method.

[3] abbreviates: cultured CHO-K1/5-HT2A cells, calcium influx (FLIPR), antagonist mode vs agonist EC80, read-out: 5-HT2A IC50.

T2 sequence (P28223 whole entry): as above
T1 sequence (P14416 whole entry): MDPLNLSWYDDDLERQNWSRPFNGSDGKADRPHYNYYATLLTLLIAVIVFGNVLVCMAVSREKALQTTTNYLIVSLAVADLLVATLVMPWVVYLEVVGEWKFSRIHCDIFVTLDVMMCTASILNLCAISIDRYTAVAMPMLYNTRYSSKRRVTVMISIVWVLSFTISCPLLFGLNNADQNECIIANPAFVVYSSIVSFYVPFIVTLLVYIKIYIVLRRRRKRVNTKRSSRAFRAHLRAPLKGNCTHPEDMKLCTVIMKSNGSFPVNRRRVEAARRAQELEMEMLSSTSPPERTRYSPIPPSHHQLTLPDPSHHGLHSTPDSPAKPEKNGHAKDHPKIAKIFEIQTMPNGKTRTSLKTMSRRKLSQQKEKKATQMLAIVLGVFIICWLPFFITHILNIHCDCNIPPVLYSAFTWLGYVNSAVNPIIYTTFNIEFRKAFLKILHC

For `CN1C(=O)CN2c3c1cccc3C1(C)CN(CCCC(=O)c3ccc(F)cc3)CCC21` (stereo not shown) [Embodiment 1, 8-(4-(4-fluorophenyl)-4-oxobutyl)-3,6b-dimethyl-6b,7,8,9,10,10a-hexahydro-1H-pyrido[3′,4′:4,5]pyrrolo[1,2,3-de]quinoxalin-2(3H)-one], the concentration for half-maximal inhibition (IC50) – broadly, the concentration needed to halve the response being measured – in data set [1] came out at 662 nM; on 5-HT2A receptor, 3.72 nM; in data set [2], 50.5 nM. The D2/5-HT2A ratio in data set [1] came to 13.09.
On to `CN1C(=O)CN2c3c1cccc3[C@]1(C)CN(CCCC(=O)c3ccc(F)cc3)CC[C@H]21` [Embodiment 1-A, (6bR,10aS)-8-(4-(4-fluorophenyl)-4-oxobutyl)-3,6b-dimethyl-6b,7,8,9,10,10a-hexahydro-1H-pyrido[3′,4′:4,5]pyrrolo [1,2,3-de]quinoxalin-2(3H)-one], for which, in “PK test on ICR mice”, the AUC(0-inf) (commonly the area under the concentration-time curve extrapolated to infinity) was found to be 190 ng·h/mL; the AUC(0-t) (commonly exposure summed from dosing to a finite time, without extrapolation to infinity) stood at 155 ng·h/mL; the Cmax (in general, the peak of the concentration-time curve) is 109 ng/mL; the time of peak concentration (Tmax) (usually the time from dosing to the highest level) came out at 0.17 h. In “PK test on ICR mice”, the half-life (in general, how long it takes for the measured level to halve) is 3.14 h. Besides, the IC50 at 5-HT2A receptor (setting [3]) is 0.78 nM.
As to `CN1CCN2c3c(cccc31)[C@@H]1CN(CCCC(=O)c3ccc(F)cc3)CC[C@@H]12` [ITI-007, Lumateperone, reference compound], in data set [1], the half-maximal inhibitory concentration (IC50) was 569 nM and the D2/5-HT2A ratio amounted to 4.75. Besides, in “PK test on ICR mice”, the AUC(0-inf) turned out to be 59.1 ng·h/mL, the exposure AUC(0-t) was 39.3 ng·h/mL, the Cmax was determined as 13.5 ng/mL and the Tmax was found to be 0.28 h. Further, the half-life in “PK test on ICR mice” was 5 h. Also, the IC50 at 5-HT2A receptor (setting [3]) came out at 3.35 nM. Also, the half-inhibitory concentration (IC50) in data set [2] (cryopreserved CHO-K1/5HT2A cells, calcium fluorescence (FLIPR), antagonist mode vs serotonin EC80, read-out: 5-HT2A IC50) came out at 120 nM.
